According to PubChem BioAssay (NCI):
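Each compound was tested at five concentrations against cells in 96-well plates for 48 hours. GI50: concentration for 50% inhibition of growth. Definition used: TGI = concentration required for complete inhibition of growth.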

Key:
Assay in all cases: growth of human tumour cells (NCI), 48 h
786-0 renal = system: 786-0 renal
SR leukemia = system: SR leukemia
RPMI-8226 leukemia = system: RPMI-8226 leukemia
RXF 393 renal = system: RXF 393 renal
U251 CNS = system: U251 CNS
HT29 colon = system: HT29 colon
MOLT-4 leukemia = system: MOLT-4 leukemia
SW-620 colon = system: SW-620 colon
A498 renal = system: A498 renal
HCC-2998 colon = system: HCC-2998 colon

SMILES | GI50 (786-0 renal) | TGI (786-0 renal) | GI50 (SR leukemia) | TGI (SR leukemia) | GI50 (RPMI-8226 leukemia) | TGI (RPMI-8226 leukemia) | GI50 (RXF 393 renal) | TGI (RXF 393 renal) | GI50 (U251 CNS) | TGI (U251 CNS) | GI50 (HT29 colon) | TGI (HT29 colon) | GI50 (MOLT-4 leukemia) | TGI (MOLT-4 leukemia) | GI50 (SW-620 colon) | TGI (SW-620 colon) | GI50 (A498 renal) | TGI (A498 renal) | GI50 (HCC-2998 colon) | TGI (HCC-2998 colon)
C[C@@H]1Cc2c([nH]c3ccccc23)[C@@H](c2c(F)cc(NC3CN(CCCF)C3)cc2F)N1CC(F)(F)CO | 8.68 µM | 24.7 µM | 3.83 µM | > 100 µM | 2.82 µM | 14.1 µM | 4.38 µM | 17 µM | 6.1 µM | 21.2 µM | 3.7 µM | 15.3 µM | 3.91 µM | 20.6 µM | 3.28 µM | 13 µM | 1.64 µM | 8.82 µM | 1.93 µM | 4 µM
O=[N+]([O-])/C=C/c1cc2ccccc2[nH]1 | – | 27.9 µM | – | 26.8 µM | – | 9.85 µM | – | 26.6 µM | – | 25.8 µM | – | 35.5 µM | – | 44.2 µM | – | 34.5 µM | – | 34.4 µM | – | –
CN(C)C/C=C/C(=O)Nc1cc2c(Nc3ccc(F)c(Cl)c3F)ncnc2cc1OCCOC(F)F | 0.348 µM | 3.56 µM | 0.496 µM | 4.83 µM | 0.921 µM | 4.68 µM | 0.241 µM | 1.6 µM | 1.99 µM | 9.23 µM | 0.422 µM | 5 µM | 1.11 µM | 5.43 µM | 1.24 µM | 9.58 µM | 0.282 µM | 1.91 µM | 1.16 µM | 2.68 µM
COc1cc2c(cc1OC)C(OC)N(C)c1c-2ccc2cc3c(cc12)OCO3 (centres undefined) | – | 5.47 µM | – | > 75 µM | – | 13.4 µM | – | 22.7 µM | – | 1.75 µM | – | 7.07 µM | – | 16.1 µM | – | 8.35 µM | – | 1.83 µM | – | 5.73 µM
Cc1nc(CN2CCCCC2)c(O)c(=O)[nH]1 | – | > 100 µM | – | > 100 µM | – | > 100 µM | – | > 100 µM | – | > 100 µM | – | > 100 µM | – | > 100 µM | – | > 100 µM | – | > 100 µM | – | –
CN(CC#N)C1CCCC[C@H]1O (some centres undefined) | – | > 100 µM | – | > 100 µM | – | > 100 µM | – | > 100 µM | – | > 100 µM | – | > 100 µM | – | > 100 µM | – | > 100 µM | – | > 100 µM | – | > 100 µM
Cc1cc2cn3c4ccc(O)cc4[nH]c(=O)c3c2cc1C | 0.0696 µM | 1.83 µM | 0.0342 µM | 0.415 µM | 0.252 µM | 3.28 µM | 0.0258 µM | 1.43 µM | 0.026 µM | 1.07 µM | – | – | – | – | 0.0105 µM | 1.53 µM | 0.0319 µM | 1.43 µM | 0.0679 µM | 1.3 µM
N#CC(C#N)N=Nc1ccc(Br)cc1 | 3.79 µM | 14.1 µM | 3.22 µM | > 49.8 µM | 1.52 µM | 8.03 µM | 3.63 µM | 14 µM | 16.2 µM | > 100 µM | 3.39 µM | > 38.5 µM | 2.72 µM | > 66.2 µM | 3.01 µM | 15.8 µM | 13.3 µM | 46.1 µM | 8.04 µM | 33.1 µM
O=C(Nc1cccc(Cc2cccc(NC(=O)c3ccccc3)c2)c1)c1ccccc1 | – | > 100 µM | – | > 100 µM | – | – | – | 46.6 µM | – | > 100 µM | – | > 100 µM | – | > 100 µM | – | > 100 µM | – | > 100 µM | – | > 100 µM
CN1CCN(c2cc(C(=O)Nc3cc4cc(-c5cnn(C)c5)ccc4cn3)ccn2)CC1 | 0.3 µM | 10.4 µM | 0.0472 µM | 13.6 µM | 0.108 µM | – | 0.258 µM | 0.724 µM | 0.188 µM | 13.2 µM | 0.182 µM | 0.442 µM | 0.221 µM | 18 µM | 0.0422 µM | 11.7 µM | 0.0605 µM | 0.447 µM | 0.276 µM | 4.57 µM
Nc1ccccc1NC(=O)c1ccc(CCCC(=O)Nc2ccc(C3CC3N)cc2)cc1 (centres undefined) | 3.5 µM | 39.3 µM | 0.738 µM | > 100 µM | 2.79 µM | 24.2 µM | 1.65 µM | 4.1 µM | 1.34 µM | 4.06 µM | 0.995 µM | > 100 µM | 1.87 µM | > 100 µM | 1.08 µM | 29.5 µM | 0.747 µM | 2.74 µM | 1.72 µM | 5.65 µM
O=C(O)c1cc2ccccc2oc1=O | – | > 100 µM | – | > 100 µM | – | > 100 µM | – | > 100 µM | – | > 100 µM | – | > 100 µM | – | > 100 µM | – | > 100 µM | – | > 100 µM | – | > 100 µM
CC(=O)N1c2ccccc2NC2=C(C(=O)N(Cc3ccccc3)C2(C)C)C1c1ccco1 (centres undefined) | 1.26 µM | > 23.1 µM | 0.463 µM | > 25 µM | 0.758 µM | > 25 µM | 0.599 µM | 1.87 µM | 0.665 µM | > 25 µM | 0.755 µM | > 25 µM | 0.786 µM | > 25 µM | 0.58 µM | > 25 µM | 0.727 µM | > 7.06 µM | 0.608 µM | > 7.95 µM
O=C(O)CCC/C=C\C[C@H]1C=CC(=O)/C1=C/C[C@@H](O)CCc1cccc(C(F)(F)F)c1 | 2.95 µM | 6.61 µM | 0.604 µM | 7.22 µM | 1.91 µM | 12.2 µM | 2 µM | 3.61 µM | 1.55 µM | 3.45 µM | 2.69 µM | 6.41 µM | 2.21 µM | 7.34 µM | 3.1 µM | 10.1 µM | 2.13 µM | 4.06 µM | 1.87 µM | 3.5 µM
COc1ccc(Cc2cc3c(cc2OCC(=O)O)OCO3)cc1 | – | > 100 µM | – | > 100 µM | – | > 100 µM | – | > 100 µM | – | – | – | > 100 µM | – | > 100 µM | – | > 100 µM | – | > 100 µM | – | > 100 µM
Fc1ccc(-c2ncn(C3CCNCC3)c2-c2ccnc(Oc3ccc(F)c(F)c3)n2)cc1 | 8.97 µM | > 16.2 µM | 6.23 µM | 13.4 µM | 12.5 µM | > 23.7 µM | 3.15 µM | 6.48 µM | 5 µM | 11.7 µM | 4.36 µM | 8.12 µM | 8.34 µM | > 19.1 µM | 4.36 µM | 8.98 µM | 10.8 µM | > 25 µM | 3.84 µM | 7.77 µM
O=C(Nc1ccccc1O)c1ccc(CNc2ccnc(C(F)(F)F)c2)cc1 | 3.36 µM | 13.6 µM | 2 µM | > 100 µM | 0.5 µM | 5.09 µM | 17.3 µM | 43.3 µM | 4.73 µM | > 100 µM | 6.42 µM | > 100 µM | 2.38 µM | 28.5 µM | 5.75 µM | 23 µM | 2.84 µM | 12.2 µM | 10.2 µM | 26.5 µM
O=S(=O)(N/N=C/c1cccc(Cl)c1Cl)c1ccccc1 | – | > 100 µM | – | > 100 µM | – | > 100 µM | – | > 100 µM | – | > 100 µM | – | > 100 µM | – | 58.1 µM | – | > 100 µM | – | > 100 µM | – | > 100 µM
COc1ccc(N/N=C(\CCN(C)C)c2ccccc2)cc1 | – | 12.4 µM | – | 15.6 µM | – | 7.5 µM | – | 29.7 µM | – | 4.55 µM | – | 23.6 µM | – | 44 µM | – | 10.9 µM | – | 29.6 µM | – | –
Cc1ccc(C2NC(=O)c3ccccc3N2)s1 (centres undefined) | – | > 100 µM | – | > 100 µM | – | > 100 µM | – | > 100 µM | – | > 100 µM | – | – | – | > 100 µM | – | > 100 µM | – | > 100 µM | – | 39.7 µM
O=C(Cc1csc(-c2nc(CC(=O)NNc3ccccc3)cs2)n1)NNc1ccccc1 | – | > 100 µM | – | 53.6 µM | – | > 100 µM | – | > 100 µM | – | > 100 µM | – | > 100 µM | – | > 100 µM | – | – | – | > 100 µM | – | > 100 µM
COc1ccc(C[C@@H]2NC[C@@H](O)[C@@H]2OC(C)=O)cc1 | 9 µM | – | 6.9 µM | > 100 µM | 1.79 µM | – | – | 0.0674 µM | – | 0.453 µM | – | – | 2.81 µM | – | 4.16 µM | – | 1.14 µM | – | 2.19 µM | –
O=C(O)/C(Cl)=C(\Cl)C(=O)NC1C2CC3CC(C2)CC1C3 (centres undefined) | – | > 100 µM | – | > 100 µM | – | > 100 µM | – | – | – | > 100 µM | – | > 100 µM | – | > 100 µM | – | > 100 µM | – | > 100 µM | – | > 100 µM
COC(=O)Nc1nc2ccc(C(=O)c3ccc(N(C)C4COC4)cc3)cc2[nH]1 | 0.5 µM | > 100 µM | 0.188 µM | > 100 µM | 0.369 µM | > 47.5 µM | – | – | 0.397 µM | > 100 µM | 0.34 µM | > 100 µM | 0.672 µM | > 100 µM | 0.355 µM | > 100 µM | 0.413 µM | > 100 µM | 0.716 µM | > 100 µM
CCN(CC)CCCC(C)Nc1ccnc2ccc3nn(C)nc3c12 (centres undefined) | – | > 100 µM | – | > 100 µM | – | > 100 µM | – | – | – | > 100 µM | – | > 100 µM | – | > 100 µM | – | 75.7 µM | – | > 100 µM | – | > 100 µM
